ChEMBL document CHEMBL4507266, “Data for DCP probe BAY-784” (2021)

What was measured:
[1] = target: NUAK family SNF1-like kinase 1 (Homo sapiens) (UniProt O60285); conditions: Compound concentration 1000.0 nM
[2] = target: Bone morphogenetic protein receptor type-1B (Homo sapiens) (UniProt O00238); conditions: Compound concentration 1000.0 nM
[3] = target: Calcium/calmodulin-dependent protein kinase kinase 2 (Homo sapiens) (UniProt Q96RR4); conditions: Compound concentration 1000.0 nM
[4] = target: Peripheral plasma membrane protein CASK (Homo sapiens) (UniProt O14936); conditions: Compound concentration 1000.0 nM
[5] = target: Cyclin-dependent kinase-like 1 (Homo sapiens) (UniProt Q00532); conditions: Compound concentration 1000.0 nM
[6] = target: Cyclin-dependent kinase-like 5 (Homo sapiens) (UniProt O76039); conditions: Compound concentration 1000.0 nM
[7] = system: Epidermal growth factor receptor (Homo sapiens), P00533 [T790M]; conditions: Compound concentration 1000.0 nM
[8] = target: Ephrin type-A receptor 5 (Homo sapiens) (UniProt P54756); conditions: Compound concentration 1000.0 nM
[9] = target: Ephrin type-A receptor 8 (Homo sapiens) (UniProt P29322); conditions: Compound concentration 1000.0 nM
[10] = target: Ephrin type-B receptor 4 (Homo sapiens) (UniProt P54760); conditions: Compound concentration 1000.0 nM
[11] = target: Receptor tyrosine-protein kinase erbB-3 (Homo sapiens) (UniProt P21860); conditions: Compound concentration 1000.0 nM
[12] = target: Receptor tyrosine-protein kinase erbB-4 (Homo sapiens) (UniProt Q15303); conditions: Compound concentration 1000.0 nM
[13] = target: Fibroblast growth factor receptor 1 (Homo sapiens) (UniProt P11362); conditions: Compound concentration 1000.0 nM
[14] = target: Fibroblast growth factor receptor 3 (Homo sapiens) (UniProt P22607); conditions: Compound concentration 1000.0 nM
[15] = target: Vascular endothelial growth factor receptor 1 (Homo sapiens) (UniProt P17948); conditions: Compound concentration 1000.0 nM
[16] = target: Vascular endothelial growth factor receptor 3 (Homo sapiens) (UniProt P35916); conditions: Compound concentration 1000.0 nM
[17] = system: eIF-2-alpha kinase GCN2 (Homo sapiens), Q9P2K8 [S808G]; conditions: Compound concentration 1000.0 nM
[18] = target: Mitogen-activated protein kinase kinase kinase kinase 1 (Homo sapiens) (UniProt Q92918); conditions: Compound concentration 1000.0 nM
[19] = target: Hormonally up-regulated neu tumor-associated kinase (Homo sapiens) (UniProt P57058); conditions: Compound concentration 1000.0 nM
[20] = target: Insulin-like growth factor 1 receptor (Homo sapiens) (UniProt P08069); conditions: Compound concentration 1000.0 nM
[21] = target: Mitogen-activated protein kinase 9 (Homo sapiens) (UniProt P45984); conditions: Compound concentration 1000.0 nM
[22] = target: Serine/threonine-protein kinase LATS2 (Homo sapiens) (UniProt Q9NRM7); conditions: Compound concentration 1000.0 nM
[23] = target: Leukocyte tyrosine kinase receptor (Homo sapiens) (UniProt P29376); conditions: Compound concentration 1000.0 nM
[24] = target: Mitogen-activated protein kinase kinase kinase kinase 2 (Homo sapiens) (UniProt Q12851); conditions: Compound concentration 1000.0 nM
[25] = target: MAP kinase-activated protein kinase 5 (Homo sapiens) (UniProt Q8IW41); conditions: Compound concentration 1000.0 nM
[26] = target: Serine/threonine-protein kinase MARK2 (Homo sapiens) (UniProt Q7KZI7); conditions: Compound concentration 1000.0 nM
[27] = target: MAP kinase-interacting serine/threonine-protein kinase 1 (Homo sapiens) (UniProt Q9BUB5); conditions: Compound concentration 1000.0 nM
[28] = target: Mitogen-activated protein kinase kinase kinase 14 (Homo sapiens) (UniProt Q99558); conditions: Compound concentration 1000.0 nM
[29] = target: Serine/threonine-protein kinase PAK 5 (Homo sapiens) (UniProt Q9P286); conditions: Compound concentration 1000.0 nM
[30] = target: Platelet-derived growth factor receptor alpha (Homo sapiens) (UniProt P16234); conditions: Compound concentration 1000.0 nM
[31] = target: Phosphatidylinositol 4-phosphate 3-kinase C2 domain-containing subunit beta (Homo sapiens) (UniProt O00750); conditions: Compound concentration 1000.0 nM
[32] = system: Phosphatidylinositol 4,5-bisphosphate 3-kinase catalytic subunit alpha isoform (Homo sapiens), P42336 [H1047Y]; conditions: Compound concentration 1000.0 nM
[33] = target: Protein kinase C epsilon type (Homo sapiens) (UniProt Q02156); conditions: Compound concentration 1000.0 nM
[34] = target: Protein kinase C eta type (Homo sapiens) (UniProt P24723); conditions: Compound concentration 1000.0 nM
[35] = target: Serine/threonine-protein kinase SIK3 (Homo sapiens) (UniProt Q9Y2K2); conditions: Compound concentration 1000.0 nM
[36] = system: Proto-oncogene tyrosine-protein kinase receptor Ret (Homo sapiens), P07949 [V804L]; conditions: Compound concentration 1000.0 nM
[37] = target: Ribosomal protein S6 kinase alpha-2 (Homo sapiens) (UniProt Q15349); conditions: Compound concentration 1000.0 nM
[38] = target: Tyrosine-protein kinase Srms (Homo sapiens) (UniProt Q9H3Y6); conditions: Compound concentration 1000.0 nM
[39] = target: Tyrosine-protein kinase receptor Tie-1 (Homo sapiens) (UniProt P35590); conditions: Compound concentration 1000.0 nM
[40] = target: Activated CDC42 kinase 1 (Homo sapiens) (UniProt Q07912); conditions: Compound concentration 1000.0 nM
[41] = target: Serine/threonine-protein kinase ULK2 (Homo sapiens) (UniProt Q8IYT8); conditions: Compound concentration 1000.0 nM
[42] = target: Serine/threonine-protein kinase WNK1 (Homo sapiens) (UniProt Q9H4A3); conditions: Compound concentration 1000.0 nM
[43] = target: Serine/threonine-protein kinase WNK2 (Homo sapiens) (UniProt Q9Y3S1); conditions: Compound concentration 1000.0 nM
[44] = target: Serine/threonine-protein kinase 32B (Homo sapiens) (UniProt Q9NY57); conditions: Compound concentration 1000.0 nM
[45] = target: Histamine H2 receptor (Homo sapiens) (UniProt P25021); conditions: Compound concentration 10.0 uM

Protein kinase C epsilon type (Homo sapiens), sequence (Q02156 whole entry): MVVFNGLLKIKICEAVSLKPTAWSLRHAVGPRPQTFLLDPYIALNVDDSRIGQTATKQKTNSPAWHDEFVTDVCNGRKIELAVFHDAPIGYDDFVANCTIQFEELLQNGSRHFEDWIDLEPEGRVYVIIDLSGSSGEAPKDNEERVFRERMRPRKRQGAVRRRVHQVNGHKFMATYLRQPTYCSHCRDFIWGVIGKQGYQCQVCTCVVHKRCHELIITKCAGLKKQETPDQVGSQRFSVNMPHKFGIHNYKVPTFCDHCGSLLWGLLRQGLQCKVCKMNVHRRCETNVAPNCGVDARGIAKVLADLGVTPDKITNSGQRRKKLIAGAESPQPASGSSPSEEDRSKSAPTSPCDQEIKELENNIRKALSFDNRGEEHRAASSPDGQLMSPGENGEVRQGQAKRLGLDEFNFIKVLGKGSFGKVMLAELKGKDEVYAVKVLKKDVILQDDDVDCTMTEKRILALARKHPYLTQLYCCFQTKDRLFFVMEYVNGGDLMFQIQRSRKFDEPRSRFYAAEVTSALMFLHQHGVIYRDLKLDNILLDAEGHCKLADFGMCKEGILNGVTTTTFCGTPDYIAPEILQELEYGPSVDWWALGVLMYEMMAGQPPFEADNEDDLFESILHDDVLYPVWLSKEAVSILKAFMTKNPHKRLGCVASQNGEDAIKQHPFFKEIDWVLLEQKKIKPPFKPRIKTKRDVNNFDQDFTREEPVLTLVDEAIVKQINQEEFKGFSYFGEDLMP
Bone morphogenetic protein receptor type-1B (Homo sapiens), sequence (O00238 whole entry): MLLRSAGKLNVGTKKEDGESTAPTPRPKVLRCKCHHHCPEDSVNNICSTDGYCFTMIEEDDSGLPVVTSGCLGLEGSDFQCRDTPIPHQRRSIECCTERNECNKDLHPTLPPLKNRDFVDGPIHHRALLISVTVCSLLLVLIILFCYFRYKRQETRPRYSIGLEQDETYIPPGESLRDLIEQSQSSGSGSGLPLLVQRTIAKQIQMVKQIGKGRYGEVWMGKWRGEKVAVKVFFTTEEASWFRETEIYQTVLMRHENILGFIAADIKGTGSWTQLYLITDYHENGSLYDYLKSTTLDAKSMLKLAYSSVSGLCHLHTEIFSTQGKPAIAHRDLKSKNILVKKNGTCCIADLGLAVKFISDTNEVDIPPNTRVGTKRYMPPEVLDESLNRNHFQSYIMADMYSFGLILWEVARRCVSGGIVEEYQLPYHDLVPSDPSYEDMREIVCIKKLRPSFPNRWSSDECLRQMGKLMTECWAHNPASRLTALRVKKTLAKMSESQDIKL
Hormonally up-regulated neu tumor-associated kinase (Homo sapiens), sequence (P57058 whole entry): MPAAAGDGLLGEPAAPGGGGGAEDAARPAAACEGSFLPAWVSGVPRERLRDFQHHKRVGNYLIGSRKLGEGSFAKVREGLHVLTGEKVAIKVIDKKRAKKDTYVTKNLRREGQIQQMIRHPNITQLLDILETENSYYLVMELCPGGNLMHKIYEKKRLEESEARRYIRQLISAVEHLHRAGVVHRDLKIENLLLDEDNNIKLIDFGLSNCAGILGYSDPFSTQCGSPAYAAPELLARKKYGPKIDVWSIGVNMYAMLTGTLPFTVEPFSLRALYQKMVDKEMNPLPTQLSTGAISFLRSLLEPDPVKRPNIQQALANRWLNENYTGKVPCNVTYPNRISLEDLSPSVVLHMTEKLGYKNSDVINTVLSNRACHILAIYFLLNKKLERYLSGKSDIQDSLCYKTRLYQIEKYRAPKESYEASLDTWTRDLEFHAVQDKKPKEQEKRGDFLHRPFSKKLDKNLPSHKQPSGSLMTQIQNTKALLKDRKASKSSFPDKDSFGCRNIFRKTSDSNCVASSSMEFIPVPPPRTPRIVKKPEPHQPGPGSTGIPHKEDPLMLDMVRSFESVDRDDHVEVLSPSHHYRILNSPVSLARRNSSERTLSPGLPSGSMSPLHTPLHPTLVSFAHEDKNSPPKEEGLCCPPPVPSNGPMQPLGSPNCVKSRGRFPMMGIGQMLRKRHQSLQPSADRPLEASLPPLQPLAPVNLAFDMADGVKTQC
Cyclin-dependent kinase-like 5 (Homo sapiens), sequence (O76039 whole entry): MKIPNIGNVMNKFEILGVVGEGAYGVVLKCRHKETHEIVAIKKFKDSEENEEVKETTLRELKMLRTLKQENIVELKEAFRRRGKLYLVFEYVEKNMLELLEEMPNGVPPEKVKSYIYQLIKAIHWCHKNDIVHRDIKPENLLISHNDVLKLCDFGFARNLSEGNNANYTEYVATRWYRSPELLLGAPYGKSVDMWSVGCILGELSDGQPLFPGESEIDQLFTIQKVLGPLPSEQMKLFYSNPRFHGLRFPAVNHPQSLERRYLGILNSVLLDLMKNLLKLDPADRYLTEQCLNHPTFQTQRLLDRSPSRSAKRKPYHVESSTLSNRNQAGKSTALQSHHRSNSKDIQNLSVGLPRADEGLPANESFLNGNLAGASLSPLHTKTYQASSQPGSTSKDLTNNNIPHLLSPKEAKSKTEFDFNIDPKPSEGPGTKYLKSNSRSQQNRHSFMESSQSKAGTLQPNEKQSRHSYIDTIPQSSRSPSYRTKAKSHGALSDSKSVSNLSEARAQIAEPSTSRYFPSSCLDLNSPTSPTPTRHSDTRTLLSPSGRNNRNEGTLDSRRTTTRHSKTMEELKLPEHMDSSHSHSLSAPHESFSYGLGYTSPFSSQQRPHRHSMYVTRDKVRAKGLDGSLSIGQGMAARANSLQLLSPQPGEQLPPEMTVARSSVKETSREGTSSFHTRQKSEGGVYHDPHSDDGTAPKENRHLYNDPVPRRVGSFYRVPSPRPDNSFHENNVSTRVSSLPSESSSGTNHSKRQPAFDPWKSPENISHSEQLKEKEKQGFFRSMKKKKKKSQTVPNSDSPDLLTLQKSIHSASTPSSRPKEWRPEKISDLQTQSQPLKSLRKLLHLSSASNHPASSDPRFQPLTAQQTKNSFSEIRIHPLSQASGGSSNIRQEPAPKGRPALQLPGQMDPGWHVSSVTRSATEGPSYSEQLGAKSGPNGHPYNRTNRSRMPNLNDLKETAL
Serine/threonine-protein kinase ULK2 (Homo sapiens), sequence (Q8IYT8 whole entry): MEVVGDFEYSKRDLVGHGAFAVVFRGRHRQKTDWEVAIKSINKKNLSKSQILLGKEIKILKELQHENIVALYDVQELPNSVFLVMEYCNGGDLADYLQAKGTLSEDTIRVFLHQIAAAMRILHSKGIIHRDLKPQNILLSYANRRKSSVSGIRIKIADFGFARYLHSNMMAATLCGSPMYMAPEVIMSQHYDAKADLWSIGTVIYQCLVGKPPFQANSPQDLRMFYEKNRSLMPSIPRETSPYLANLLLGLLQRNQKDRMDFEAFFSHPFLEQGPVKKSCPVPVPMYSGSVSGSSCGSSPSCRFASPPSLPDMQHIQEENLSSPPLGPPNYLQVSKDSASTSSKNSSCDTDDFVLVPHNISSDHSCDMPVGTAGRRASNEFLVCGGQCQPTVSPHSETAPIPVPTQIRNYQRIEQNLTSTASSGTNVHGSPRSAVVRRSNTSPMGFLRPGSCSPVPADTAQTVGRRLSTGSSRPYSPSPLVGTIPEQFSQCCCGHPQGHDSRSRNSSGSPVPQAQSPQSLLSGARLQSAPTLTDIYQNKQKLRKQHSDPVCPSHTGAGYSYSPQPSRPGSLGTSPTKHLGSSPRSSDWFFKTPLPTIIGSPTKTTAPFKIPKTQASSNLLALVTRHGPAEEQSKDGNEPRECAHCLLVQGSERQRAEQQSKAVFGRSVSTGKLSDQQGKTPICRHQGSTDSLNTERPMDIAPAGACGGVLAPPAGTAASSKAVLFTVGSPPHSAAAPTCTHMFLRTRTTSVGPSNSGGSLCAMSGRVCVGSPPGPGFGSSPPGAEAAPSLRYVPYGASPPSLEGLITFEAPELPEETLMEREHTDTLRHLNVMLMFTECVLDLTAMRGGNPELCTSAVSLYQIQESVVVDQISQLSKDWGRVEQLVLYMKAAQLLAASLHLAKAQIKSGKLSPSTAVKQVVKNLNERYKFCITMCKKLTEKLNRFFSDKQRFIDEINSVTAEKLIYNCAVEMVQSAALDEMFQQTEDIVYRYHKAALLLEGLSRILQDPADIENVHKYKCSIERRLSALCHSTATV
Peripheral plasma membrane protein CASK (Homo sapiens), sequence (O14936 whole entry): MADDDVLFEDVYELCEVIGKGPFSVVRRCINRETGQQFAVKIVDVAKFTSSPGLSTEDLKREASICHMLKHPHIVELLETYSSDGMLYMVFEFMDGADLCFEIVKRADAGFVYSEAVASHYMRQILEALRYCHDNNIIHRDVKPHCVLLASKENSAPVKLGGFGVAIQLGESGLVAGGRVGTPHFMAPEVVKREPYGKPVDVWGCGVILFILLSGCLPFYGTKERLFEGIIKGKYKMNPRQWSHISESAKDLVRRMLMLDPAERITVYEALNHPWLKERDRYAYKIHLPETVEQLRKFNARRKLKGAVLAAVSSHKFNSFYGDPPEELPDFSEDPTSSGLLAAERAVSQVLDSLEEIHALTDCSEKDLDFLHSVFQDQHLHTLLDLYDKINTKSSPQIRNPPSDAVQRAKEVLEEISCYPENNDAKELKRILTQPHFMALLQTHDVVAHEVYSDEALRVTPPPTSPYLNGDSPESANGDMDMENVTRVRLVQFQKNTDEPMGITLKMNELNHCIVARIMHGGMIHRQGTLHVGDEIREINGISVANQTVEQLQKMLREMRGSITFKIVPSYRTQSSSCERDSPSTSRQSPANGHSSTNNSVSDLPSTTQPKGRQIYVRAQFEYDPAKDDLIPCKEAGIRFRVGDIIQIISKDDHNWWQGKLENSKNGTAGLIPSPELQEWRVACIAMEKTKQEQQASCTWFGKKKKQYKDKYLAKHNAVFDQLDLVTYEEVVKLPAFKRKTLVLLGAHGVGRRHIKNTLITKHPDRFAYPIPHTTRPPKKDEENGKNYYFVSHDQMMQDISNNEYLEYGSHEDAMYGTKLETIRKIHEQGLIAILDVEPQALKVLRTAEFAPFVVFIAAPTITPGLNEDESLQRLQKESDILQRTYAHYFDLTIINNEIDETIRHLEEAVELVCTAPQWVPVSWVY

What does the source list for `O=C(NCc1ncc(C(F)(F)F)cc1Cl)c1ccc2c(c1)C1(CCS(=O)(=O)CC1)[C@H](C1CC1)N2S(=O)(=O)c1ccc(F)cc1` [BAY-784]?
residual activity [1]: 83%; residual activity [2]: 93%; residual activity [3]: 100%; residual activity [4]: 75%; residual activity [5]: 90%; residual activity [6]: 78%; residual activity [7]: 100%; residual activity [8]: 100%; residual activity [9]: 97%; residual activity [10]: 100%; residual activity [11]: 100%; residual activity [12]: 70%; residual activity [13]: 49%; residual activity [14]: 100%; residual activity [15]: 98%; residual activity [16]: 92%; residual activity [17]: 88%; residual activity [18]: 100%; residual activity [19]: 84%; residual activity [20]: 100%; residual activity [21]: 76%; residual activity [22]: 100%; residual activity [23]: 87%; residual activity [24]: 100%; residual activity [25]: 100%; residual activity [26]: 100%; residual activity [27]: 74%; residual activity [28]: 100%; residual activity [29]: 100%; residual activity [30]: 90%; residual activity [31]: 100%; residual activity [32]: 90%; residual activity [33]: 69%; residual activity [34]: 100%; residual activity [35]: 100%; residual activity [36]: 92%; residual activity [37]: 99%; residual activity [38]: 71%; residual activity [39]: 100%; residual activity [40]: 85%; residual activity [41]: 58%; residual activity [42]: 90%; residual activity [43]: 97%; residual activity [44]: 100%; inhibition [45]: 14.6%

Which residual activity [1] does the source give for `O=C(NCc1ncc(C(F)(F)F)cc1Cl)c1ccc2c(c1)C1(CCS(=O)(=O)CC1)[C@@H](C1CC1)N2S(=O)(=O)c1ccc(F)cc1` [BAY-786] here?
The residual activity was 88%.

What about the residual activity [2] of the same compound?
The residual activity was 85%.

And the residual activity [3]?
Its residual activity is 83%.

And the residual activity [4]?
Its residual activity is 64%.

What about the residual activity [5] of the same compound?
The residual activity was 100%.

What about the residual activity [6] of the same compound?
Its residual activity is 67%.

What about the residual activity [7] of the same compound?
Its residual activity is 100%.

What about the residual activity [8] of the same compound?
The residual activity was 77%.

What about the residual activity [9] of the same compound?
Its residual activity is 100%.

What about the residual activity [10] of the same compound?
Its residual activity is 94%.

And the residual activity [11]?
Its residual activity is 100%.

And the residual activity [12]?
The residual activity was 72%.

What about the residual activity [13] of the same compound?
Its residual activity is 100%.

What about the residual activity [14] of the same compound?
Its residual activity is 100%.

And the residual activity [15]?
The residual activity was 82%.

What about the residual activity [16] of the same compound?
Its residual activity is 100%.

What about the residual activity [17] of the same compound?
The residual activity was 100%.

What about the residual activity [18] of the same compound?
The residual activity was 89%.

And the residual activity [19]?
The residual activity was 85%.

What about the residual activity [20] of the same compound?
Its residual activity is 88%.

What about the residual activity [21] of the same compound?
The residual activity was 82%.

And the residual activity [22]?
Its residual activity is 99%.

What about the residual activity [23] of the same compound?
Its residual activity is 81%.

And the residual activity [24]?
Its residual activity is 91%.

What about the residual activity [25] of the same compound?
The residual activity was 100%.

And the residual activity [26]?
Its residual activity is 63%.

And the residual activity [27]?
Its residual activity is 78%.

And the residual activity [28]?
The residual activity was 71%.

What about the residual activity [29] of the same compound?
The residual activity was 74%.

And the residual activity [30]?
Its residual activity is 87%.

What about the residual activity [31] of the same compound?
Its residual activity is 90%.

And the residual activity [32]?
Its residual activity is 85%.

And the residual activity [33]?
Its residual activity is 76%.

What about the residual activity [34] of the same compound?
The residual activity was 96%.

What about the residual activity [35] of the same compound?
Its residual activity is 72%.

And the residual activity [36]?
The residual activity was 100%.

What about the residual activity [37] of the same compound?
The residual activity was 100%.

What about the residual activity [38] of the same compound?
Its residual activity is 60%.

What about the residual activity [39] of the same compound?
The residual activity was 95%.

What about the residual activity [40] of the same compound?
The residual activity was 84%.

And the residual activity [41]?
The residual activity was 54%.

What about the residual activity [42] of the same compound?
The residual activity was 79%.

And the residual activity [43]?
The residual activity was 0%.

What about the residual activity [44] of the same compound?
Its residual activity is 96%.

What about the inhibition [45] of the same compound?
Its inhibition is 16.5%.
